Reference: patent US20190029987A1, “DIMETHYL FUMARATE (DMF) FOR PREVENTION OR TREATMENT OF GOUT, ACNE, DIABETES, VITILIGO AND/OR PYODERMA GANGRENOSUM” (UNIVERSITAT ZURICH, priority 2016, published 2019)

How the values were obtained:
[1] = tested on: Monosodium urate (MSU) crystal-induced peritonitis; settings: mice, high concentrations injected into the peritoneum; cited from earlier work
[2] = target: T1, NLRP3 inflammasome (Homo sapiens, UniProt Q96P20); experiment: Inflammasome activation by nigericin/MSU in differentiated, primed THP-1 cells (IL-1β ELISA, Western blot); type: cell-based; settings: for accumulation of mature IL-1β in the cells (lysate): THP-1, 10 μM 30 min before nigericin, 2.5 h, FIG. 8D; for IL-1β secretion: THP-1, 10 μM 1 h before 5 μM nigericin or 150 μg/ml MSU, 5 h, FIG. 2B
T1 construct: endogenous in cells
Text: To determine the effects of Nrf2 activating compounds on inflammasome activation, the inventors treated keratinocytes with different doses of SFN, tBHQ, DMF or 15d-PGJ2 and irradiated the cells with UVB.
SFN, DMF, 15d-PGJ2, tBHQ, zymosan, ATP, poly(dA:dT), cycloheximide, puromycin, and doxycycline were purchased from Sigma (Munich, Germany), nigericin from Enzo Life Sciences (New York, US-NY), MG132 from Calbiochem (Darmstadt, Germany), and blasticidin from Invivogen (Toulouse, France). Release of IL-1p was determined by ELISA according the instructions of the manufacturer (R&D Systems, Minneapolis, US-MN). MSU crystals were prepared by crystallisation of a supersaturated solution of uric acid under mildly basic conditions. Briefly, uric acid was added to a solution of NaOH, the solution was boiled until the uric acid was dissolved and passed through a filter. NaCl was added and crystallisation was performed at 4° C. Crystals were filtered, then dried using a speedvac, weighted and autoclaved.
(A) HPKs were treated with the indicated concentrations of the Nrf2 activating compound tBHQ irradiated with UVB 30 min later and harvested after 5 h. ELISA measurements were performed for quantification of IL-1β secretion and Western blots for analysis of expression and activation of the indicated proteins. Specific bands are marked with an asterisk. (B) THP-1 cells were differentiated with PMA (27 nM) for 3 d, primed with upLPS (100 ng/ml) overnight, and 1 h before inflammasome activation (5 μM nigericin, 150 μg/ml MSU) treated with SFN (10 μM), 15-PGJ2 (10 μM) or DMF (50 μM) (15-PG: 15-PGJ2). Cells and supernatants were harvested after 5 h and analysed for inflammasome activation by ELISA measurement of IL-1p and Western blots as indicated. (C) Freshly isolated PBMCs from human blood were primed overnight with upLPS (100 ng/ml) and treated with SFN (10 μM), tBHQ (10 μM), DMF (50 μM) or 15-PGJ2 (10 μM) 1 h before inflammasome activation by nigericin (5 μM). ELISA measurement for secretion of IL-1β as readout for inflammasome activation was performed after 5 h. (D) HPKs or (E) differentiated and primed THP-1 cells were pretreated with cycloheximide (CHX, 30 μg/ml) to block protein synthesis for 1 h before SFN (10 μM) was added to the cells and after an additional hour the inflammasome was activated by (D) irradiation with UVB or (E) treatment with nigericin (5 μM). Cells and supernatants were harvested after (D) 6 h or (E) 3.5 h and analysed for inflammasome activation by Western blot as indicated. (A-E) Representative experiments performed at least three times are shown. Statistics: (A-C) Error bars represent the mean±SD of a representative experiment performed in triplicates. One-way ANOVA was performed. **P≤0.01; ***P≤0.001.
(A-C) HPKs were irradiated with (A) UVB or treated with (B) nigericin (5 μM) and cells and supernatants were harvested at different time points as indicated. Western blots for expression and activation of the indicated proteins. Specific bands are marked with an asterisk. (C) Expression of Nrf2 and Nrf2 target genes was determined by qRT-PCR. (D, E) THP-1 cells were differentiated with PMA (27 nM) for 3 d, primed with upLPS (100 ng/ml) overnight and treated with nigericin (5 μM) or MSU (150 μg/ml). Cells and supernatants were harvested at different time points as indicated and analysed for (D) expression and activation of the proteins as indicated by Western blot and (E) expression of Nrf2 and Nrf2 target genes by qRT-PCR. (F) HPKs were transfected with specific siRNAs as indicated (scr: scrambled, c1: caspase-1, K1; Keap1), 2 d later irradiated with UVB or treated with nigericin (5 μM). Cells were harvested after 1 h or 5 h, and lysates were analysed for the expression of the indicated proteins by Western blot.

[3] = tested on: Nrf2; experiment: Nrf2 stabilisation and nuclear accumulation in human primary keratinocytes (Western blot); type: cell-based; settings: HPKs, 10 μM, FIG. 6E,F; for expression of the other Nrf2 complex proteins Keap1, Cul3, and Rbx1: 1 h; for stabilisation and nuclear accumulation of Nrf2 protein: harvested after 1 h
Method: Human primary keratinocytes (HPKs) constitutively express pro-IL-1β and inflammasome proteins.
FIG. 6: Bone marrow (BM) cells were isolated from Nrf2-deficient mice and wt litterfnates and differentiated into dendritic cells (DCs). (A, B) After priming with upLPS overnight, BMDCs were treated with the NLRP3 inflammasome activators nigericin (20 μM), zymosan (20 μg/ml), MSU (150 μg/ml), ATP (5 mM) or transfected with poly(dA:dT) (1 μg/ml) for activation of the AIM2 inflammasome. After 6 h, supernatants were analysed for secretion of IL-1β by (A) ELISA or (B) Western blot. Mock-treated but primed BMDCs were analysed for expression of inflammasome proteins and pro-IL-1β at the (C) mRNA level by qRT-PCR or at the (D) protein level by Western blot. (B, D) Duplicates from two individual mice per genotype are shown (biological replicates). (E-G) HPKs were treated with the Nrf2 activators SFN (10 μM), tBHQ (10 μM), DMF (50 μM) and 15d-PGJ2 (10 μM). After 1 h, the cells were harvested and analysed for expression of the indicated proteins using total cell lysates (E) or cytoplasmic and nuclear lysates (F). Western blots for the nuclear protein lamin NC and the cytoplasmic protein α-tubulin served as controls. Specific bands are marked with an asterisk. (G) Total RNA was isolated after 8 h and qRT-PCR was performed for quantification of expression of the Nrf2 target genes glutamate-cysteine ligase, catalytic subunit (GCLC), glutamate-cysteine ligase, modifier subunit (GCLM), and NAD(P)H dehydrogenase, quinone 1 (N001). (A-G) Representative experiments performed at least three times are shown. […] Mann-Whitney test was performed. […] Mann-Whitney test was performed. *P≤0.05

T1 sequence (Q96P20 whole entry): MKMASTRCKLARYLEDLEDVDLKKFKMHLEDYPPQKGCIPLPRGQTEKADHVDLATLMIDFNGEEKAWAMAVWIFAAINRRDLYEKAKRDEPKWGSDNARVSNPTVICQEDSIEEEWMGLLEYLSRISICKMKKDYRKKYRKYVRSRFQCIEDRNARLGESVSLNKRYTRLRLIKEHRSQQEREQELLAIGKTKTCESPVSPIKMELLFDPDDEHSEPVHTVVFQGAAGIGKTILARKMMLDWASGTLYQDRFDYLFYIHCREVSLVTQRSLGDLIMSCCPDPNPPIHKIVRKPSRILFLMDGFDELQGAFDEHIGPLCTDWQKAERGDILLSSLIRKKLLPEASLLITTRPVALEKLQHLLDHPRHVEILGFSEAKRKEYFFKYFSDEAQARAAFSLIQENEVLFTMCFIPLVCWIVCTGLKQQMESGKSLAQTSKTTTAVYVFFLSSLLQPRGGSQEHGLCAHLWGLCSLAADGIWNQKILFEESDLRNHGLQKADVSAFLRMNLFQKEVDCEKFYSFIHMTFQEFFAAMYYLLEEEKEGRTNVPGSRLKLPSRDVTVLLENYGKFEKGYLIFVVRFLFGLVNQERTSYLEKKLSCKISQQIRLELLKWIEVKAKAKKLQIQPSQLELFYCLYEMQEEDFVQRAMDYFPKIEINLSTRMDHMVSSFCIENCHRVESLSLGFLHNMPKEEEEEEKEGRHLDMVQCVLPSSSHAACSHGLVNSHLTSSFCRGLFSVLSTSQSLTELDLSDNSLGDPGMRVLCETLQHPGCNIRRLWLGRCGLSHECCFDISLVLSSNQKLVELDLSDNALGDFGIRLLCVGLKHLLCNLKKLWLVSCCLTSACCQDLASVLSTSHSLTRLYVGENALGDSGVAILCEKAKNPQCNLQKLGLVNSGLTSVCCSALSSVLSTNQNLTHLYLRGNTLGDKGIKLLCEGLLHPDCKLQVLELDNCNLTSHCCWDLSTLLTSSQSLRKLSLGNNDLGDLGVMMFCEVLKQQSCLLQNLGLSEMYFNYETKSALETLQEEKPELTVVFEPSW

Q: Which “inflammasome activation and MSU-induced peritonitis” value [1] does the source give for `CCCCCC=CC=C1C(=O)C=CC1CC=CCCCC(=O)O` [15d-PGJ2, 15-deoxy-D-prostaglandin J2] here?
A: blocked inflammasome activation and reduced MSU-induced peritonitis

Q: What about the “accumulation of mature IL-1β in the cells (lysate)” value [2] of the same molecule?
A: mature IL-1β did not accumulate

Q: What about the IL-1β secretion [2] of the same molecule?
A: inhibited IL-1β secretion

Q: What about the “expression of the other Nrf2 complex proteins Keap1, Cul3, and Rbx1” value [3] of the same molecule?
A: not affected

Q: And the “stabilisation and nuclear accumulation of Nrf2 protein” value [3]?
A: fast and robust stabilisation and nuclear accumulation of Nrf2 protein

Q: For `C[S+]([O-])CCCCN=C=S` (stereo not drawn) [SFN, sulforaphane], which “inflammasome activation and MSU-induced peritonitis” value [1] is on record?
A: blocked inflammasome activation and reduced MSU-induced peritonitis

Q: What about the “accumulation of mature IL-1β in the cells (lysate)” value [2] of the same molecule?
A: mature IL-1β did not accumulate

Q: What about the IL-1β secretion [2] of the same molecule?
A: inhibited IL-1β secretion

Q: What about the “inflammasome inhibition by SFN with protein synthesis blocked by cycloheximide” value ([2]; THP-1, CHX 30 μg/ml 1 h before SFN 10 μM, nigericin 5 μM 1 h later, 3.5 h, FIG. 2E) of the same molecule?
A: did not prevent inflammasome inhibition

Q: What about the “dependence of inflammasome inhibition on Keap1” value ([2]; THP-1 cells with knockout of Keap1, 10 μM pretreatment, nigericin 5 μM, 3.5 h, FIG. 4H) of the same molecule?
A: Keap1 independent

Q: And the “expression of the other Nrf2 complex proteins Keap1, Cul3, and Rbx1” value [3]?
A: not affected

Q: And the “stabilisation and nuclear accumulation of Nrf2 protein” value [3]?
A: fast and robust stabilisation and nuclear accumulation of Nrf2 protein
